Target: T1, human Grb2 SH2 domain (Homo sapiens, UniProt P62993)
T1 construct: made in house; host or cells: E. coli (pGEX-2T)
Experiment: ELISA-based SH2 domain / pY peptide binding assay, Grb2 SH2 domain
Procedure: The inhibitory activity of compounds at the different human SH2 domains was determined in vitro using SH2 domains expressed as fusion proteins in E. coli. The SH2 domains used herein were the human forms of the src SH2 domain, Grb2 SH2 domain, lck SH2 domain, fyn SH2 domain, SH-PTP2 SH2 domain, p85 SH2 domain and hcp SH2 domain.
Fusion proteins having the structure GST-X-SH2 were prepared as described in the GST gene fusion kit system available from Pharmacia (New Jersey). GST is the tagging sequence glutathione s-transferase epitope (SEQ ID NO: 8) for fyn, Grb2 and SH-PTP2 and is the tagging sequence glutathione s-transferase epitope (SEQ ID NO: 9) for p85. SH2 refers to the SH2 domains of fyn, Grb2, p85 and SH-PTP2 which were expressed and purified using glutathione Sepharose 4B (Pharmacia) according to "Current Protocols in Molecular Biology", ed. FM Ausubel et al., pub. John Wiley and Sons, Inc., (1995), p 16.7.1. X is an appropriate linker, preferably of 6 to 21 base pairs, used to keep the SH2 construct in frame and complement cloning. As such, the sequence of X is not critical. One skilled in the art can readily construct the appropriate linker. The DNA sequence encoding each GST-X-SH2 fusion protein was designed such that the indicated restriction sites (BamH1 and EcoRI) flank the SH2 region. […]

T1 sequence (P62993 58-159): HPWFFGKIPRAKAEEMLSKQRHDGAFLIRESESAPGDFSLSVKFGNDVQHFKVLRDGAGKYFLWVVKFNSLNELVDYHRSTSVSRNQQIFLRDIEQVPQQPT

Ki (Ki calculated from IC50 with the expanded equation): > 1000 µM | IC50 (inhibition of binding of 0.1 uM biotinylated pY peptide to SH2 domain fusion protein): > 300 µM
Compound: CCCCCCNC(=O)[C@H]1CC[C@H](CNC(=O)c2ccc(C(=O)c3ccc(C(=O)O)cc3)cc2)CC1 [Compound 6, 4-carboxy-benzophenone-4-carboxamido-trans-4-methyl-cyclohexyl-N-hexyl carboxamide]
